Tests used:
[1] = test system: kinase activity present in HUVEC (sphingosine kinase); assay: in vitro kinase assay with total cell extract from HUVEC; type: biochemical, human; details: HUVEC total cell extract; 100 μM FTY720 or AAL, 20 μM sphingosine; 30 minutes
Procedure: To confirm that FTY720 and (R)-AAL are phosphorylated by endothelial cells, an in vitro kinase assay was performed with both total cell extract and conditioned medium from HUVEC. […] Cells were scraped at 4° C. with 400 μl of 25 mM HEPES pH 7.5, […], 1× protease inhibitor mixture, and disrupted by brief sonication. Cellular homogenates were centrifuged for 10 minutes, 4° C. at 20,000×g. In the kinase assay, 300 μl of conditioned medium (derived from 5×10^5 cells for 3 hours of incubation) or 10 μg of total cell extract from HUVEC were used as a source of kinase activity. […] Lipids were extracted and samples were resuspended in 50 μl of chloroform. Lipids were resolved by TLC on Silica Gel G60 using 1-butanol/acetic acid/water (60/20/20 volume/volume) buffer and quantified with a PhosphorImager (Molecular Dynamics).

[2] = test system: phospho-Akt; assay: Western blot of Akt phosphorylation in HUVEC; type: cell-based, human; details: 5 minute stimulation
Source text: (§1) Endothelial cell morphogenesis, a phenomenon that requires endothelial cell migration, survival and adherens junction assembly, is mediated by the ligand-dependent activation of S1P1 and S1P3 receptors. […] The effects of FTY720-P and analogs on Akt and ERK phosphorylation in HUVEC were studied in a Western blot analysis. Confluent cultures of HUVEC cells were serum starved for two hours in 0.1% ffa-BSA M199 before treatments. Then, they were washed with ice-cold phosphate buffered saline (PBS) containing 1 mM sodium fluoride and 1 mM sodium orthovanadate and homogenized in radioimmunoprecipitation assay buffer (0.1% sodium dodecyl sulfate (SDS), 0.5% sodium deoxycholate, 1% NP-40, 1 mM sodium orthovanadate, 50 mM β-glycerophosphate and 1× protease inhibitor cocktail). Samples were centrifuged 10,000×g for 10 minutes, and protein concentrations of supernatants were determined by Bradford assay (BioRad Protein Dye Reagent). Equal amounts of protein were separated on a 10% polyacrylamide gel and blotted to a nitrocellulose membrane. Immunoblot analysis was performed using Phospho-Akt, Akt, phospho-ERK1/2 or ERK-1/2 antibodies.

[3] = test system: phospho-ERK-1/2; assay: Western blot of ERK-1/2 phosphorylation in HUVEC; type: cell-based, human; details: 5 minute stimulation
Source text: as §1

[4] = test system: VE-cadherin; assay: VE-cadherin localization by immunofluorescence in HUVEC; type: cell-based, human; details: 30 minutes; 10 nM (S1P 100 nM)
Procedure: The effects of FTY720-P and (R)-AFD on the localization of VE-cadherin were studied using immunofluorescence analysis. In this study, 2×10^5 cells were plated in 35 millimeter glass bottom petri dishes. Three days later, the cells were washed and serum starved for 3 hours before treatments. Then, the cells were washed with ice-cold PBS, fixed, and immunofluorescence analysis with VE-cadherin antibody was conducted (1 μg/ml Santa Cruz). The primary antibody staining was visualized with Rhodamine-conjugated goat anti-mouse (1:1000, Cappel) IgG. Confocal microscopy was conducted on a Zeiss LSM 510 laser-scanning confocal microscope. Rhodamine fluorescence was excited using a 543 nm Helium/Neon laser and emitted fluorescence was detected with a […] long-pass filter.

[5] = test system: VEGF-induced vascular permeability; assay: mouse ear microvascular permeability assay (VEGF-induced); type: in vivo, FVB/N mice; details: mice, single oral administration (gavage, 50 μg) 5 hours prior
Procedure: The role of plasma borne FTY720-P or (R)-AFD in the regulation of vascular permeability was tested in vivo. In order to test this possibility, an in vivo vascular permeability model was used in FTY720, (R)-AFD or (S)-AAL-pretreated mice. […] Five hours post-gavage, animals were anesthetized with 2% Avertin™ (0.5 cc/20 g) and infused through the tail vein with 100 μl FITC-dextran (5 mg/ml, 165 kDa). Animals were placed on a warming table under a fluorescent dissecting microscope (Zeiss STV11, Zeiss, Inc.) and the central vessels in the ear were imaged. Control saline or mouse vascular endothelial growth factor (mVEGF, 10 ng/ml) was injected subdermally into the middle ear using a 30 gauge needle (30 μl). Ear vasculature was then imaged with fixed exposure times in a stationary position from 5 minutes to 120 minutes post-injection. Fluorescence images were then quantified using pixel-based threshold in ImageProPlus (Media Cybernetics, Inc.) and quantified.

[6] = target: T1, SK2 (Mus musculus, UniProt Q9JIA7); details: SK2-[…]T; 100 μM FTY720 or (R)-AAL, 20 μM sphingosine
T1 sequence (Q9JIA7 1-617): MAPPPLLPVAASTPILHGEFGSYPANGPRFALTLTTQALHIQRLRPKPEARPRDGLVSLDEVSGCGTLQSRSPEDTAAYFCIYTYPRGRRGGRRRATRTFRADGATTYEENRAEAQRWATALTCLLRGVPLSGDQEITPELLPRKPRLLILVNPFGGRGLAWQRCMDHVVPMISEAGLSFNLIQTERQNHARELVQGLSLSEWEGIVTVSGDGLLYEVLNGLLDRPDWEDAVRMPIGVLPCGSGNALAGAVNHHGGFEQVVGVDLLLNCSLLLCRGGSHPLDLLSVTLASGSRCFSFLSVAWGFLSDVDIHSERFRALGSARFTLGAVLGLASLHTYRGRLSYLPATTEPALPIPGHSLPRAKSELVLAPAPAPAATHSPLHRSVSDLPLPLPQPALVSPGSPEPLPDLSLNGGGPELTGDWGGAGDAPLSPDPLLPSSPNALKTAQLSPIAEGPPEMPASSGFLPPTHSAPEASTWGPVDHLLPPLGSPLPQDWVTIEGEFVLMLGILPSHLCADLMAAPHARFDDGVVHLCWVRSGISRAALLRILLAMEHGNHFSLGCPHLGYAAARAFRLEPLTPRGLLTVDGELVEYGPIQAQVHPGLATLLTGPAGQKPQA

[7] = test system: HUVEC; assay: HUVEC migration (96 well chemotaxis microchamber); details: for migration induced by conditioned medium: compound incubated with HUVEC for 3 hours, conditioned medium used as chemoattractant; for induction of endothelial cell migration: compound used directly as chemoattractant, 4 hours
Procedure: Briefly, polycarbonate filters with a pore size of 8 micrometers (μm) were coated with 5 micrograms per milliliter (μg/ml) fibronectin. […] Approximately 5×10^4 cells suspended in M199 with 0.1% bovine serum albumin were placed in the upper compartment. The cells were allowed to migrate for 4 hours at 37° C. in a humidified chamber with 5% CO2. After the incubation period, the filter was removed, and cells were stained in 0.1% crystal violet and eluted with 10% acetic acid in 96-well plates.
After incubation, conditioned medium was removed, centrifuged at 1,000×g for 10 minutes, and used in the migration assay.

[8] = target: SK1 (Mus musculus, UniProt Q8CI15); details: SK1-293T; 20 μM sphingosine
Sequence of SK1 (Q8CI15 1-388 isoform Q8CI15-2): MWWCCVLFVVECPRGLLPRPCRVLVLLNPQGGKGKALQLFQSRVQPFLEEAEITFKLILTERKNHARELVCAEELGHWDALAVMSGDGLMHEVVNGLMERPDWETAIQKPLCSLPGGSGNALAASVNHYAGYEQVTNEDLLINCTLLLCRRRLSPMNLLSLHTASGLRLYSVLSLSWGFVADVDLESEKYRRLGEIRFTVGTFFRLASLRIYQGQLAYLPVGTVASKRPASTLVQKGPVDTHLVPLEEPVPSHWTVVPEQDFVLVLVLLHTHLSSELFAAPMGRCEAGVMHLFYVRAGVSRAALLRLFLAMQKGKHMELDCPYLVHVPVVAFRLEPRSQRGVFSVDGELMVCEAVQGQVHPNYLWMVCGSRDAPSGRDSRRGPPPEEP

SMILES | specific activity (phosphorylation of the substrate) [1] | Akt phosphorylation (in words) [2] | ERK-1/2 phosphorylation (in words) [3] | VE-cadherin localization at cell-cell contact regions / translocation to adherens junctions [4] | inhibition of vascular permeability induced by VEGF [5] | specific activity (phosphorylation of the substrate) [6] | migration induced by conditioned medium [7] | induction of endothelial cell migration [7] | specific activity (phosphorylation of the substrate) [8]
CCCCCCCCc1ccc(CCC(N)(CO)CO)cc1 [FTY720, 2-amino-2-[2-(4-octaphenyl)ethyl]propane-1,3 diol, reference compound] | 3.85 ± 0.75 pmol/mg/min | did not induce phospho-Akt or phospho-ERK-1/2 levels | did not induce phospho-Akt or phospho-ERK-1/2 levels | did not induce VE-cadherin translocation to the adherens junctions | profoundly suppressed vascular permeability induced by VEGF | 41.6 pmol/min/mg | activated into potent chemoattractants for endothelial cells | Neither FTY720 nor its structural analog (R)-AAL induced endothelial cell migration | –
CCCCCCCOc1ccc(CC[C@@](C)(N)CO)cc1 [(R)-AAL, 2-amino-2-methyl-4-[4-heptoxy-phenyl]butane-1-ol] | 15 ± 0.93 pmol/mg/min | – | – | did not induce VE-cadherin translocation to the adherens junctions | potently inhibited vascular permeability in vivo | 199.5 pmol/min/mg | activated into potent chemoattractants for endothelial cells | Neither FTY720 nor its structural analog (R)-AAL induced endothelial cell migration | –
CCCCCCCCCCCCC/C=C/[C@@H](O)[C@@H](N)CO [sphingosine, Sphingosine] | 75.7 ± 6 pmol/mg/min | – | – | – | – | 319.9 pmol/min/mg | – | – | 48.1 pmol/mg/min
